Experimental data reported in patent US20240270762A1, “PENICILLIN-BINDING PROTEIN INHIBITORS” (priority 2021, published 2024).

Target: T1, PBP3 from Acinetobacter baumannii (ATCC 19606) (Acinetobacter baumannii, UniProt A0ABX6CK25)
T1 sequence (A0ABX6CK25 64-610): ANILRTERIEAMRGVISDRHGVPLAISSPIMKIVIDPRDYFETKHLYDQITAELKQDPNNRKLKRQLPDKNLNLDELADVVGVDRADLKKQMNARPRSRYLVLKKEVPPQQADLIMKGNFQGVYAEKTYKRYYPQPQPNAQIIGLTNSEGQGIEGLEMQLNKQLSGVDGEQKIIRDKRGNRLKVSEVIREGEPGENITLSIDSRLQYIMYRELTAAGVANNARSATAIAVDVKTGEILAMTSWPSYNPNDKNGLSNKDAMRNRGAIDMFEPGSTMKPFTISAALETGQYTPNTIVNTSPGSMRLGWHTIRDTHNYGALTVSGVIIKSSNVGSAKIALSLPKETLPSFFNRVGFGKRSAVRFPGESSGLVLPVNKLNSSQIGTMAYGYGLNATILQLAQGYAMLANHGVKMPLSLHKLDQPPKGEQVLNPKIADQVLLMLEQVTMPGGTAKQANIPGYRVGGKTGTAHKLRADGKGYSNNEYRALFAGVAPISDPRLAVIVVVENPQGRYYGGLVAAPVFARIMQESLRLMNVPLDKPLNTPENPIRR
Experiment: Bocillin-FL fluorescence polarization competition binding, A. baumannii PBP3
Conditions: fluorescence polarization competition binding assay using Bocillin-FL; read-out: A. baumannii PBP3 Potency
How it was run: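 Purified PBPs pre-incubated with inhibitor (E. coli PBP3 1.5 μM, 30 min; P. aeruginosa PBP3 0.75 μM, A. baumannii PBP1a 1 μM and PBP3 0.2 μM, 15 min), then Bocillin-FL 0.1 μM (0.05 μM for PBP1a) added; FP read up to 60 min. EC50 = concentration halving bound Bocillin-FL.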

Compound | IC50 [µM]
CN(CCN1CCN(C(=O)N[C@@H](C(=O)N[C@H]2Cc3ccc(F)c(C(=O)O)c3OB2O)c2cc(F)c(O)c(O)c2Cl)C(=O)C1=O)Cc1nccs1 [Example 200, (R)-3-((R)-2-(2-chloro-5-fluoro-3,4-dihydroxyphenyl)-2-(4-(2-(methyl(thiazol-2-ylmethyl)amino)ethyl)-2,3-dioxopiperazine-1-carboxamido)acetamido)-7-fluoro-2-hydroxy-3,4-dihydro-2H-benzo[e][1,2]oxaborinine-8-carboxylic acid] | < 10
CN(CCN1CCN(C(=O)N[C@@H](C(=O)N[C@H]2Cc3ccc(F)c(C(=O)O)c3OB2O)c2cc(F)c(O)c(O)c2Cl)C(=O)C1=O)Cc1cccnc1 [Example 201, (R)-3-((R)-2-(2-chloro-5-fluoro-3,4-dihydroxyphenyl)-2-(4-(2-(methyl(pyridin-3-ylmethyl)amino)ethyl)-2,3-dioxopiperazine-1-carboxamido)acetamido)-7-fluoro-2-hydroxy-3,4-dihydro-2H-benzo[e][1,2]oxaborinine-8-carboxylic acid] | < 10
O=C(NCCCN1CCN(C(=O)NC(C(=O)N[C@H]2Cc3ccc(F)c(C(=O)O)c3OB2O)c2cc(F)c(O)c(O)c2Cl)C(=O)C1=O)c1ccccc1 (stereo partly drawn) [Example 202, (3R)-3-(2-(4-(3-benzamidopropyl)-2,3-dioxopiperazine-1-carboxamido)-2-(2-chloro-5-fluoro-3,4-dihydroxyphenyl)acetamido)-7-fluoro-2-hydroxy-3,4-dihydro-2H-benzo[e][1,2]oxaborinine-8-carboxylic acid] | < 10
O=C(NCCCN1CCN(C(=O)NC(C(=O)N[C@H]2Cc3ccc(F)c(C(=O)O)c3OB2O)c2cc(F)c(O)c(O)c2Cl)C(=O)C1=O)c1ccc(O)cc1 (stereo partly drawn) [Example 203, (3R)-3-(2-(2-chloro-5-fluoro-3,4-dihydroxyphenyl)-2-(4-(3-(4-hydroxybenzamido)propyl)-2,3-dioxopiperazine-1-carboxamido)acetamido)-7-fluoro-2-hydroxy-3,4-dihydro-2H-benzo[e][1,2]oxaborinine-8-carboxylic acid] | < 10
O=C(NCCCN1CCN(C(=O)NC(C(=O)N[C@H]2Cc3ccc(F)c(C(=O)O)c3OB2O)c2cc(F)c(O)c(O)c2Cl)C(=O)C1=O)c1cccc(O)c1 (stereo partly drawn) [Example 204, (3R)-3-(2-(2-chloro-5-fluoro-3,4-dihydroxyphenyl)-2-(4-(3-(3-hydroxybenzamido)propyl)-2,3-dioxopiperazine-1-carboxamido)acetamido)-7-fluoro-2-hydroxy-3,4-dihydro-2H-benzo[e][1,2]oxaborinine-8-carboxylic acid] | < 10
O=C(NCCCN1CCN(C(=O)NC(C(=O)N[C@H]2Cc3ccc(F)c(C(=O)O)c3OB2O)c2cc(F)c(O)c(O)c2Cl)C(=O)C1=O)c1ccncc1 (stereo partly drawn) [Example 205, (3R)-3-(2-(2-chloro-5-fluoro-3,4-dihydroxyphenyl)-2-(4-(3-(isonicotinamido)propyl)-2,3-dioxopiperazine-1-carboxamido)acetamido)-7-fluoro-2-hydroxy-3,4-dihydro-2H-benzo[e][1,2]oxaborinine-8-carboxylic acid] | < 10
O=C(NCCCN1CCN(C(=O)NC(C(=O)N[C@H]2Cc3ccc(F)c(C(=O)O)c3OB2O)c2cc(F)c(O)c(O)c2Cl)C(=O)C1=O)Nc1cccc(O)c1 (stereo partly drawn) [Example 206, (3R)-3-(2-(2-chloro-5-fluoro-3,4-dihydroxyphenyl)-2-(4-(3-(3-(3-hydroxyphenyl)ureido)propyl)-2,3-dioxopiperazine-1-carboxamido)acetamido)-7-fluoro-2-hydroxy-3,4-dihydro-2H-benzo[e][1,2]oxaborinine-8-carboxylic acid] | < 10
O=C(NCCN1CCN(C(=O)NC(C(=O)N[C@H]2Cc3ccc(F)c(C(=O)O)c3OB2O)c2cc(F)c(O)c(O)c2Cl)C(=O)C1=O)c1ccccc1 (stereo partly drawn) [Example 207, (3R)-3-(2-(4-(2-benzamidoethyl)-2,3-dioxopiperazine-1-carboxamido)-2-(2-chloro-5-fluoro-3,4-dihydroxyphenyl)acetamido)-7-fluoro-2-hydroxy-3,4-dihydro-2H-benzo[e][1,2]oxaborinine-8-carboxylic acid] | < 10
CN(CCN1CCN(C(=O)N[C@@H](C(=O)N[C@H]2Cc3ccc(F)c(C(=O)O)c3OB2O)c2cc(F)c(O)c(O)c2Cl)C(=O)C1=O)Cc1cncc(O)c1 [Example 208, (R)-3-((R)-2-(2-chloro-5-fluoro-3,4-dihydroxyphenyl)-2-(4-(2-(((5-hydroxypyridin-3-yl)methyl)(methyl)amino)ethyl)-2,3-dioxopiperazine-1-carboxamido)acetamido)-7-fluoro-2-hydroxy-3,4-dihydro-2H-benzo[e][1,2]oxaborinine-8-carboxylic acid] | < 10
CN(CCN1CCN(C(=O)N[C@@H](C(=O)N[C@H]2Cc3ccc(F)c(C(=O)O)c3OB2O)c2cc(F)c(O)c(O)c2Cl)C(=O)C1=O)Cc1ccc(N)nc1 [Example 209, (R)-3-((R)-2-(4-(2-(((6-aminopyridin-3-yl)methyl)(methyl)amino)ethyl)-2,3-dioxopiperazine-1-carboxamido)-2-(2-chloro-5-fluoro-3,4-dihydroxyphenyl)acetamido)-7-fluoro-2-hydroxy-3,4-dihydro-2H-benzo[e][1,2]oxaborinine-8-carboxylic acid] | < 10
O=C(NCCCN1CCN(C(=O)N[C@@H](C(=O)N[C@H]2Cc3ccc(F)c(C(=O)O)c3OB2O)c2cc(F)c(O)c(O)c2Cl)C(=O)C1=O)c1cccnc1 [Example 210, (R)-3-((R)-2-(2-chloro-5-fluoro-3,4-dihydroxyphenyl)-2-(4-(3-(nicotinamido)propyl)-2,3-dioxopiperazine-1-carboxamido)acetamido)-7-fluoro-2-hydroxy-3,4-dihydro-2H-benzo[e][1,2]oxaborinine-8-carboxylic acid] | < 10
O=C(NCCCN1CCN(C(=O)NC(C(=O)N[C@H]2Cc3ccc(F)c(C(=O)O)c3OB2O)c2cc(F)c(O)c(O)c2Cl)C(=O)C1=O)c1nccs1 (stereo partly drawn) [Example 211, (3R)-3-(2-(2-chloro-5-fluoro-3,4-dihydroxyphenyl)-2-(2,3-dioxo-4-(3-(thiazole-2-carboxamido)propyl)piperazine-1-carboxamido)acetamido)-7-fluoro-2-hydroxy-3,4-dihydro-2H-benzo[e][1,2]oxaborinine-8-carboxylic acid] | < 10
O=C(O)c1c(F)ccc2c1OB(O)[C@@H](NC(=O)C(NC(=O)N1CCN(CCCNC(=O)[C@@H]3CCCN3)C(=O)C1=O)c1cc(F)c(O)c(O)c1Cl)C2 (stereo partly drawn) [Example 212, (3R)-3-(2-(2-chloro-5-fluoro-3,4-dihydroxyphenyl)-2-(2,3-dioxo-4-(3-((S)-pyrrolidine-2-carboxamido)propyl)piperazine-1-carboxamido)acetamido)-7-fluoro-2-hydroxy-3,4-dihydro-2H-benzo[e][1,2]oxaborinine-8-carboxylic acid] | < 10
O=C(NCCCN1CCN(C(=O)NC(C(=O)N[C@H]2Cc3ccc(F)c(C(=O)O)c3OB2O)c2cc(F)c(O)c(O)c2Cl)C(=O)C1=O)Nc1cccnc1 (stereo partly drawn) [Example 213, (3R)-3-(2-(2-chloro-5-fluoro-3,4-dihydroxyphenyl)-2-(2,3-dioxo-4-(3-(3-(pyridin-3-yl)ureido)propyl)piperazine-1-carboxamido)acetamido)-7-fluoro-2-hydroxy-3,4-dihydro-2H-benzo[e][1,2]oxaborinine-8-carboxylic acid] | < 10
